Among the data in patent publication US20160046604A1, “HETEROARYL SUBSTITUTED INDAZOLES” (BAYER PHARMA AKTIENGESELLSCHAFT, priority 2013, published 2016) are IC50 values, retold here.

Where two headings read alike, the source gives them in different places.

The target of assay [1] is T1, catalytic domain of human Bub1 (amino acids 704-1085) (Homo sapiens, UniProt O43683).
T1 construct: catalytic domain of human Bub1 (amino acids 704-1085); His6 (N); made in house; host or cells: Hi5 insect cells
Kind of assay: Bub1 kinase assay (TR-FRET). The format is biochemical. The protocol: To this end, 100-fold concentrated compound solutions (in DMSO) were previously prepared by serial dilution (1:3.4) of 2 mM stocks in a clear low volume 384-well source microtiter plate (Greiner Bio-One, Frickenhausen, Germany), from which 50 nL of compounds were transferred into a black low volume test microtiter plate from the same supplier. […] The resulting mixture (5 μL final volume) was incubated at 22° C. during 60 min., and the reaction was stopped by the addition of 5 μL of an aqueous EDTA-solution (50 mM EDTA, in 100 mM HEPES pH 7.5 and 0.2% (w/v) bovine serum albumin) which also contained the TR-FRET detection reagents (0.2 μM streptavidin-XL665 [Cisbio Bioassays, Codolet, France] and 1 nM anti-phoshoSerine antibody [Merck Millipore, cat. #35-001] and 0.4 nM LANCE EU-W1024 labeled anti-mouse IgG antibody [Perkin-Elmer, product no. AD0077, alternatively a Terbium-cryptate-labeled anti-mouse IgG antibody from Cisbio Bioassays can be used]). The stopped reaction mixture was further incubated 1 h at 22° C. in order to allow the formation of complexes between peptides and detection reagents. Subsequently, the amount of product was evaluated by measurement of the resonance energy transfer from the Eu-chelate-antibody complex recognizing the Phosphoserine residue to the streptavidin-XL665 bound to the biotin moiety of the peptide. […] IC50 values were calculated by fitting the normalized inhibition data to a 4-parameter logistic equation (Minimum, Maximum, IC50, Hill; Y=Max+(Min−Max)/(1+(X/IC50)Hill)).
(TR-FRET usually uses a lanthanide donor and a delayed reading to cut background.)

For assay [2], the system named is HeLa human cervical tumor cells. The assay is described as follows: Proliferation assay (HeLa cell line).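 Further: crystal violet staining, absorbance at 595 nm, 0.001–10 µM test range, 4-day exposure, 0% is cell number at dosing and 100% untreated growth, IC50 from 4-parameter fit.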 The following applies: 96 h, read-out: Biological Assay 2: Proliferation assay (HeLa cell line) median IC50.
Method: Cultivated HeLa human cervical tumor cells (cells were ordered from ATCC CCL-2) were plated at a density of 3000 cells/well in a 96-well multititer plates in 200 microL DMEM/HAMS F12 culture medium (Biochrom F4815) supplemented with 10% fetal calf serum. After 24 hours, the cells of one plate (zero-point plate) were stained with crystal violet (see below), while the medium of the other plates was replaced by fresh culture medium (200 microL) containing the test substances in various concentrations (0 microM, as well as in the range of 0.001-10 microM; the final concentration of the solvent dimethyl sulfoxide was 0.5%). The cells were incubated for 4 days in the presence of test substances. Cell proliferation was determined by staining the cells with crystal violet: the cells were fixed by adding 20 microL/measuring point of an 11% glutaric aldehyde solution for 15 minutes at room temperature. After three washing cycles of the fixed cells with water, the plates were dried at room temperature. The cells were stained by adding 100 microL/measuring point of a 0.1% crystal violet solution (pH 3.0). After three washing cycles of the stained cells with water, the plates were dried at room temperature. The dye was dissolved by adding 100 microL/measuring point of a 10% acetic acid solution. Absorption was determined by photometry at a wavelength of 595 nm. The change of cell number, in percent, was calculated by normalization of the measured values to the absorption values of the zero-point plate (=0%) and the absorption of the untreated (0 microM) cells (=100%). The IC50 values were determined by means of a 4 parameter fit.
[3] abbreviates: TR-FRET, recombinant catalytic domain of human Bub1, ATP 10 μM, peptide substrate 1 μM, 60 min at 22° C., read-out: Biological Assay 1: Bub1 kinase assay median IC50.

T1 sequence (O43683 704-1085): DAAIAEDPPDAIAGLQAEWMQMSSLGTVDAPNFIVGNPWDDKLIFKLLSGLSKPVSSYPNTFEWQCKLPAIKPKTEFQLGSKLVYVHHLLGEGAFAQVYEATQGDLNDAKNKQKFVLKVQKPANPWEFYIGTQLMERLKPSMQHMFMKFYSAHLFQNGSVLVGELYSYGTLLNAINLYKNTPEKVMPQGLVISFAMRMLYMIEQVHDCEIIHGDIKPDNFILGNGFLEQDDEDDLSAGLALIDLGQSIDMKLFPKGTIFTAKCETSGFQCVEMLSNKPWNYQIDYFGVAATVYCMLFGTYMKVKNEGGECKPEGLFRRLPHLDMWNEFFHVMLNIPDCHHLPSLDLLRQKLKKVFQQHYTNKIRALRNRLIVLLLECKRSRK

For the compound `COc1cnc(-c2nn(Cc3c(Cl)ccnc3Cl)c3ccccc23)nc1Nc1ccncc1` [Example 2-1-1, 2-{1-[(2,4-dichloropyridin-3-yl)methyl]-1H-indazol-3-yl}-5-methoxy-N-(pyridin-4-yl)pyrimidin-4-amine], the IC50 in assay [1] amounted to 8.4 nM; in assay [2] it was 2600 nM. In the same order, the values of `COc1cnc(-c2nn(Cc3ncc(F)cc3F)c3ccccc23)nc1Nc1ccncc1` [Example 2-1-2, 2-{1-[(3,5-difluoropyridin-2-yl)methyl]-1H-indazol-3-yl}-5-methoxy-N-(pyridin-4-yl)pyrimidin-4-amine] are 9 nM and over 10000 nM. Consider `COc1cnc(-c2nn(Cc3c(C)noc3C)c3ccccc23)nc1Nc1ccncc1` [Example 2-1-3, 2-{1-[(3,5-dimethyl-1,2-oxazol-4-yl)methyl]-1H-indazol-3-yl}-5-methoxy-N-(pyridin-4-yl)pyrimidin-4-amine], for which the IC50 in assay [1] (setting [3]) is 30 nM; in assay [2], over 10000 nM. Consider `COc1cnc(-c2nn(Cc3cnn(C)c3C)c3ccccc23)nc1Nc1ccncc1` [Example 2-1-4, 2-{1-[(1,5-dimethyl-1H-pyrazol-4-yl)methyl]-1H-indazol-3-yl}-5-methoxy-N-(pyridin-4-yl)pyrimidin-4-amine], for which the values for the IC50 in assay [1] (setting [3]) and in assay [2] were 42 nM and over 10000 nM, respectively. On to `COc1cnc(-c2nn(Cc3ccc(C(F)(F)F)nc3C)c3ccccc23)nc1Nc1ccncc1` [Example 2-1-5, 5-methoxy-2-(1-{[2-methyl-6-(trifluoromethyl)pyridin-3-yl]methyl}-1H-indazol-3-yl)-N-(pyridin-4-yl)pyrimidin-4-amine], for which the IC50 in assay [1] was found to be 58 nM; in assay [2] it was 7100 nM. With `COc1cnc(-c2nn(Cc3c(C)nnn3C(F)F)c3ccccc23)nc1Nc1ccncc1` [Example 2-1-6, 2-(1-{[1-(difluoromethyl)-4-methyl-1H-1,2,3-triazol-5-yl]methyl}-1H-indazol-3-yl)-5-methoxy-N-(pyridin-4-yl)pyrimidin-4-amine], the IC50 in assay [1] (setting [3]) was 150 nM. In assay [1], `COc1cnc(-c2nn(Cc3c(C(F)F)nn(C)c3OCC(F)(F)F)c3ccccc23)nc1Nc1ccncc1` [Example 2-1-7, 2-(1-{[3-(difluoromethyl)-1-methyl-5-(2,2,2-trifluoroethoxy)-1H-pyrazol-4-yl]methyl}-1H-indazol-3-yl)-5-methoxy-N-(pyridin-4-yl)pyrimidin-4-amine] displayed an IC50 of 450 nM.

`COc1cnc(-c2nn(Cc3c(C(F)(F)F)nnn3C)c3ccccc23)nc1Nc1ccncc1` [Example 2-1-8, 5-methoxy-2-(1-{[1-methyl-4-(trifluoromethyl)-1H-1,2,3-triazol-5-yl]methyl}-1H-indazol-3-yl)-N-(pyridin-4-yl)pyrimidin-4-amine]: the IC50 in assay [1] (setting [3]) was 610 nM; in assay [2] it was over 10000 nM. Take `COc1cnc(-c2nn(Cc3c(C)nnn3C(F)F)c3ccccc23)nc1N(Cc1c(C)nnn1C(F)F)c1ccncc1` [Example 2-1-9, N-{[1-(difluoromethyl)-4-methyl-1H-1,2,3-triazol-5-yl]methyl}-2-(1-{[1-(difluoromethyl)-4-methyl-1H-1,2,3-triazol-5-yl]methyl}-1H-indazol-3-yl)-5-methoxy-N-(pyridin-4-yl)pyrimidin-4-amine]: the IC50 in assay [1] (setting [3]) was determined as 790 nM. Compound `COc1cnc(-c2nn(Cc3c(C(F)(F)F)nn(C)c3C(F)F)c3ccccc23)nc1Nc1ccncc1` [Example 2-1-10, 2-(1-{[5-(difluoromethyl)-1-methyl-3-(trifluoromethyl)-1H-pyrazol-4-yl]methyl}-1H-indazol-3-yl)-5-methoxy-N-(pyridin-4-yl)pyrimidin-4-amine] gave an IC50 in assay [1] of 3200 nM. On to `COc1cnc(-c2nn(Cc3c(Cl)cnn3C)c3ccccc23)nc1Nc1ccncc1` [Example 2-2-1, 2-{1-[(4-chloro-1-methyl-1H-pyrazol-5-yl)methyl]-1H-indazol-3-yl}-5-methoxy-N-(pyridin-4-yl)pyrimidin-4-amine], for which the results for the IC50 in assay [1] (setting [3]) and in assay [2] were 8.9 nM and over 10000 nM, respectively.

As for `COc1cnc(-c2nn(Cc3nn(C)cc3Cl)c3ccccc23)nc1Nc1ccncc1` [Example 2-2-2, 2-{1-[(4-chloro-1-methyl-1H-pyrazol-3-yl)methyl]-1H-indazol-3-yl}-5-methoxy-N-(pyridin-4-yl)pyrimidin-4-amine], the results for the IC50 in assay [1] (setting [3]) and in assay [2] were 46 nM and 4400 nM, respectively. Consider `COc1cnc(-c2nn(Cc3nsc(N)n3)c3ccccc23)nc1Nc1ccncc1` [Example 2-2-3, 2-{1-[(5-amino-1,2,4-thiadiazol-3-yl)methyl]-1H-indazol-3-yl}-5-methoxy-N-(pyridin-4-yl)pyrimidin-4-amine], for which the values for the IC50 in assay [1] (setting [3]) and in assay [2] were 54 nM and over 10000 nM, respectively. `COCc1noc(Cn2nc(-c3ncc(OC)c(Nc4ccncc4)n3)c3ccccc32)n1` [Example 2-2-4, 5-methoxy-2-(1-{[3-(methoxymethyl)-1,2,4-oxadiazol-5-yl]methyl}-1H-indazol-3-yl)-N-(pyridin-4-yl)pyrimidin-4-amine]: the IC50 in assay [1] (setting [3]) is 280 nM; in assay [2] it was over 10000 nM. In the same order, the values of `CNC(=O)c1nc(Cn2nc(-c3ncc(OC)c(Nc4ccncc4)n3)c3ccccc32)no1` [Example 2-2-5, 3-({3-[5-methoxy-4-(pyridin-4-ylamino)pyrimidin-2-yl]-1H-indazol-1-yl}methyl)-N-methyl-1,2,4-oxadiazole-5-carboxamide] are 540 nM and over 10000 nM. Turning to `COc1cnc(-c2nn(Cc3cn4cccnc4n3)c3ccccc23)nc1Nc1ccncc1` [Example 2-2-6, 2-[1-(imidazo[1,2-a]pyrimidin-2-ylmethyl)-1H-indazol-3-yl]-5-methoxy-N-(pyridin-4-yl)pyrimidin-4-amine], the IC50 in assay [1] (setting [3]) is 1600 nM.

With `COc1cnc(-c2nn(Cc3cc(=O)[nH]c(=O)[nH]3)c3ccccc23)nc1Nc1ccncc1` [Example 2-2-7, 6-({3-[5-methoxy-4-(pyridin-4-ylamino)pyrimidin-2-yl]-1H-indazol-1-yl}methyl)pyrimidine-2,4(1H,3H)-dione], the values for the IC50 in assay [1] and in assay [2] were 3100 nM and over 10000 nM, respectively.

For the compound `CNC(=O)c1cnccc1Nc1nc(-c2nn(Cc3nc(COC)no3)c3ccccc23)ncc1OC` [Example 2-2-8, 4-{[5-methoxy-2-(1-{[3-(methoxymethyl)-1,2,4-oxadiazol-5-yl]methyl}-1H-indazol-3-yl)pyrimidin-4-yl]amino}-N-methylnicotinamide], the IC50 in assay [1] (setting [3]) is 17 nM; in assay [2], over 10000 nM.

On to `COc1cnc(-c2nn(Cc3cc(C(C)C)no3)c3ccccc23)nc1Nc1ccncc1C(N)=O` [Example 2-2-9, 4-[(2-{1-[(3-isopropyl-1,2-oxazol-5-yl)methyl]-1H-indazol-3-yl}-5-methoxypyrimidin-4-yl)amino]nicotinamide], for which the results for the IC50 in assay [1] and in assay [2] were 6.9 nM and 3900 nM, respectively. Take `COCc1noc(Cn2nc(-c3ncc(OC)c(Nc4ccncc4C(N)=O)n3)c3ccccc32)n1` [Example 2-2-10, 4-{[5-methoxy-2-(1-{[3-(methoxymethyl)-1,2,4-oxadiazol-5-yl]methyl}-1H-indazol-3-yl)pyrimidin-4-yl]amino}nicotinamide]: the figures for the IC50 in assay [1] and in assay [2] were 4.8 nM and over 10000 nM, respectively.

With `COc1cnc(-c2nn(Cc3cscn3)c3ccccc23)nc1Nc1ccncc1C(N)=O` [Example 2-2-11, 4-({5-methoxy-2-[1-(1,3-thiazol-4-ylmethyl)-1H-indazol-3-yl]pyrimidin-4-yl}amino)nicotinamide], the IC50 in assay [1] came to 8 nM; in assay [2], 8800 nM. The matching figures for `CNC(=O)c1cnccc1Nc1nc(-c2nn(Cc3cc(C(C)C)no3)c3ccccc23)ncc1OC` [Example 2-2-12, 4-[(2-{1-[(3-isopropyl-1,2-oxazol-5-yl)methyl]-1H-indazol-3-yl}-5-methoxypyrimidin-4-yl)amino]-N-methylnicotinamide]: 5.7 nM and over 10000 nM. In the same order, the values of `COc1cnc(-c2nn(Cc3nnc(C)o3)c3ccccc23)nc1Nc1ccncc1C(N)=O` [Example 2-2-13, 4-[(5-methoxy-2-{1-[(5-methyl-1,3,4-oxadiazol-2-yl)methyl]-1H-indazol-3-yl}pyrimidin-4-yl)amino]nicotinamide] are 22 nM and over 10000 nM. In turn, `CNC(=O)c1cnccc1Nc1nc(-c2nn(Cc3nnc(C)o3)c3ccccc23)ncc1OC` [Example 2-2-15, 4-[(5-methoxy-2-{1-[(5-methyl-1,3,4-oxadiazol-2-yl)methyl]-1H-indazol-3-yl}pyrimidin-4-yl)amino]-N-methylnicotinamide] displayed an IC50 in assay [1] of 99 nM. On the same count and under the same terms, to `Cc1noc(C)c1Cn1nc(-c2nc(N)cc(Nc3ccncc3C(=O)NCCO)n2)c2ccccc21` [Example 2-4-1, 4-[(6-amino-2-{1-[(3,5-dimethyl-1,2-oxazol-4-yl)methyl]-1H-indazol-3-yl}pyrimidin-4-yl)amino]-N-(2-hydroxyethyl)nicotinamide] belongs 34 nM.
